The values below come from ChEMBL document CHEMBL5537210, “Probing Isosteric Replacement for Immunoadjuvant Design: Bis-Aryl Triazole Trehalolipids are Mincle Agonists” (ACS Med Chem Lett, 2024).

Active and inactive are the calls of the source. The calls are words filed in the database; no cut-off is given here.

Assay type in all cases: functional, cell-based
What all share (settings): dose 0.1-1 nmol

Assay [1] concerns 2B4. In words: Induction of NFAT-GFP signal in mouse 2B4 reporter cells expressing mMincle + FcRgamma at 0.1 to 1 nmol incubated for 18 hrs by flow cytometry analysis.
Assay [2] deals with BMDM. In words: Induction of cytokine production in wild type C57BL/6 mouse BMDM cells assessed as IL-1beta secretion at 0.1 to 1 nmol incubated for 24 hrs by ELISA method.
The test system of assay [3] is BMDM. In words: Induction of cytokine production in wild type C57BL/6 mouse BMDM cells assessed as IL-6 secretion at 0.1 to 1 nmol incubated for 24 hrs by ELISA method.
Assay [4] relates to BMDM. In words: Induction of cytokine production in wild type C57BL/6 mouse BMDM cells assessed as IL-10 secretion at 0.1 to 1 nmol incubated for 24 hrs by ELISA method.

Consider `CCCCCCCCOc1cccc(-c2cn(C[C@H]3O[C@H](O[C@H]4O[C@H](Cn5cc(-c6cccc(OCCCCCCCC)c6OCCCCCCCC)nn5)[C@@H](O)[C@H](O)[C@H]4O)[C@H](O)[C@@H](O)[C@@H]3O)nn2)c1OCCCCCCCC`, for which the result in assay [1], in assay [2], in assay [3] and in assay [4] was Active.

With `CCCCCCCCOc1cc(OCCCCCCCC)cc(-c2cn(C[C@H]3O[C@H](O[C@H]4O[C@H](Cn5cc(-c6cc(OCCCCCCCC)cc(OCCCCCCCC)c6)nn5)[C@@H](O)[C@H](O)[C@H]4O)[C@H](O)[C@@H](O)[C@@H]3O)nn2)c1`, the outcome in assay [1], in assay [3] and in assay [4] was Active. The result in assay [2] was inactive.

Regarding `CCCCCCCCOc1ccccc1-c1cn(C[C@H]2O[C@H](O[C@H]3O[C@H](Cn4cc(-c5ccccc5OCCCCCCCC)nn4)[C@@H](O)[C@H](O)[C@H]3O)[C@H](O)[C@@H](O)[C@@H]2O)nn1`, the result in assay [1] was Active.

With `O[C@@H]1[C@@H](O)[C@@H](O[C@H]2O[C@H](Cn3cc(-c4ccccc4)nn3)[C@@H](O)[C@H](O)[C@H]2O)O[C@H](Cn2cc(-c3ccccc3)nn2)[C@H]1O`, the outcome in assay [1] was inactive.

On to `CCCCCCCCOc1ccc(-c2cn(C[C@H]3O[C@H](O[C@H]4O[C@H](Cn5cc(-c6ccc(OCCCCCCCC)cc6)nn5)[C@@H](O)[C@H](O)[C@H]4O)[C@H](O)[C@@H](O)[C@@H]3O)nn2)cc1`, for which, in assay [1], the outcome was Active.

Take `CCCCCCCCOc1ccc(-c2cn(C[C@H]3O[C@H](O[C@H]4O[C@H](Cn5cc(-c6ccc(OCCCCCCCC)c(OCCCCCCCC)c6)nn5)[C@@H](O)[C@H](O)[C@H]4O)[C@H](O)[C@@H](O)[C@@H]3O)nn2)cc1OCCCCCCCC`: the outcome in assay [1] was Active. For the same compound, the result in assay [2], in assay [3] and in assay [4] was inactive.

`CCCCCCCCOc1ccc(-c2cn(C[C@H]3O[C@H](O[C@H]4O[C@H](Cn5cc(-c6ccc(OCCCCCCCC)cc6OCCCCCCCC)nn5)[C@@H](O)[C@H](O)[C@H]4O)[C@H](O)[C@@H](O)[C@@H]3O)nn2)c(OCCCCCCCC)c1`: the result in assay [1], in assay [2], in assay [3] and in assay [4] was Active.
